The test system of the test is BALL-1. Briefly: cytotoxicity against human BALL1 cells by MTT assay. It counts as functional, cell-based.

In general, IC50 refers to the point on the concentration scale where inhibition reaches its midpoint. A lower IC50 goes with greater potency. For the compound `CCCCCCCCCCCC(=O)[C@]12O[C@H]1C(C)(O)NC2=O` (some centres undefined), the IC50 was 1650 nM.
`CCN(CC)c1ccc2cc(NC(=O)OCCCCCCCCCCCC(=O)[C@]34O[C@H]3C(C)(O)NC4=O)c(=O)oc2c1` (some centres undefined) returned an IC50 of 1560 nM.
To `CC1(O)NC(=O)[C@@]2(C(=O)CCCCCCCCCCCNC(=O)CCCC[C@@H]3SC[C@@H]4NC(=O)N[C@@H]43)O[C@@H]12` (some centres undefined) belongs 48300 nM; to `C\C=C(/C=C(C)/C=C/CC/C=C(\C)C(=O)[C@]12O[C@H]1C(C)(O)NC2=O)C(=O)OC` (some centres undefined) [EPOLACTAENE], 3820 nM.

These data come from ChEMBL document CHEMBL1157191, “Syntheses and applications of fluorescent and biotinylated epolactaene derivatives: Epolactaene and its derivative induce disulfide formation” (Bioorg Med Chem, 2008).
